# According to patent US10745393B2, “Small molecular probes, processes and use thereof” (JAWAHARLAL NEHRU CENTRE FOR ADVANCED SCIENTIFIC RESEARCH, priority 2014, dated 2020):
# Columns and labels:
# Aβ42 monomers = Aβ42 monomers (Homo sapiens, UniProt P05067); assay: Absorption / fluorescence response with Aβ monomers; format: binding; details: QC 2 μM, Aβ monomers 10 μM
# Aβ42 aggregates [1] = molecular target: T1, Aβ42 aggregates (Homo sapiens, UniProt P05067); assay: Binding saturation assay (fluorescence) for binding constant; details: fluorescence saturation curve; Aβ42 aggregates 10 μM (QC) or 2 μM (TC); read-out: dissociation constant Kd
# [2] = molecular target: T2, islet amyloid polypeptide (IAPP) aggregates (Homo sapiens, UniProt P10997); assay: Selectivity: fluorescence with IAPP aggregates; format: binding; details: IAPP aggregates 20 μM
# T2 construct: A 0.1 mg (Merck, calbiochem) sample of amylin is dissolved in 100 μL of acetonitrile; purchased Merck, calbiochem
# [3] = system: α-synuclein (A30P) aggregates expressed in S. cerevisiae (BY4741); format: cell-based; details: QC 5 μM
# [4] = system: Aβ plaques in CSF samples; assay: Detection of amyloid plaques in CSF samples by fluorescence; details: QC 10 μM
# Description: In the present experiment, Amyloid plaques in the CSF sample are detected as it is a hallmark of AD using ThT and QC. […] QC (10 μM) is used to detect Aβ plaques in the same set of CSF samples, which show the same trend as Thioflavin assay and stains CSF3, CSF5, CSF6 and CSF12 samples (FIG. 57 and table 6).
# [5] = Partition coefficient (Log P), shake flask method; format: physicochemical; details: n-octanol/water
# Description: Log P value is calculated by Shake flask (or tube) method. To an equilibrated solution of n-octanol and water in a separating funnel, probe QC/TC is added and agitated well. The solution is left for 30 minutes for proper separation of immiscible solvents, then the distribution of QC/TC is calculated using UV spectroscopy and the obtained concentrations are used in below equation to obtain log P value log P=log [Conc. of QC or TC in n-octanol/Conc. of QC or TC in water]
# calf thymus DNA = assay: Selectivity of QC: fluorescence with calf thymus DNA; format: binding; details: QC 2 μM, DNA 20 μM
# Source text: Selective fluorescence enhancement is shown by QC probe, with strong binding affinity. Probe QC has very good lipophilicity to cross the BBB and serum stability. QC detects Aβ plaques in CSF samples of patient which can be used in early diagnosis of Alzheimer's Disease. Probe QC is a molecular rotor moiety containing an electron withdrawing group in conjugation with an electron releasing group with a freely rotatable bond. Prevention of internal rotation in QC by surrounding medium rigidity, leads to a decrease in the non-radiative decay rate and an increase in fluorescence emission. […] In presence of Aβ42 aggregates (10 μM) prepared in PBS buffer (10 mM), absorption maxima at 521 nm (λex) and a blue shifted emission maxima (10 nm) with huge (>100 fold) fluorescence enhancement ([…]=654 nm) and a large stoke shift of ˜130 nm is observed (FIG. 47). […] These peptides are known to form fibrillar aggregates similar to Aβ42 aggregates. […] No such changes are observed in case of IAPP aggregates.
# [6] = molecular target: ThT/Aβ42 aggregate complex (Homo sapiens, UniProt P05067); assay: ThT displacement / FRET assay; format: binding; details: decay at 483 nm, enhancement at 654 nm
# [7] = Absorption, emission and quantum yield of probes without Aβ42 aggregates; format: physicochemical
# [8] = molecular target: bovine serum albumin (BSA) (Bos taurus, UniProt P02769); assay: Selectivity: fluorescence with BSA; format: binding
# Aβ42 aggregates [9] = molecular target: T1, Aβ42 aggregates; assay: Absorption / fluorescence response with Aβ42 fibrillar aggregates; format: binding
# [10] = In vitro stability in human blood serum (HPLC); format: in vitro ADME; details: 60 min incubation with human blood serum at 37° C.
# Description: The in vitro stability of QC in […] is determined by incubating QC (10 μM in H2O, 50 μM) with 300 μL of human blood serum at 37° C. for 30 and 60 min. Proteins are precipitated by adding 500 μL of acetonitrile […] at 5000 rpm for 5 min at 4° C. The supernatant is collected. Approximately 0.1 mL of the supernatant solution is analyzed using HPLC.
# [11] = system: Aβ42 aggregates expressed in S. cerevisiae (BY4741); format: cell-based
# [12] = molecular target: α-Synuclein (α-Syn) aggregates (Homo sapiens, UniProt P37840); assay: Selectivity: fluorescence with α-synuclein aggregates; format: binding
# [13] = cresyl violet perchlorate standard
# bovine serum albumin (BSA), sequence (P02769 25-607): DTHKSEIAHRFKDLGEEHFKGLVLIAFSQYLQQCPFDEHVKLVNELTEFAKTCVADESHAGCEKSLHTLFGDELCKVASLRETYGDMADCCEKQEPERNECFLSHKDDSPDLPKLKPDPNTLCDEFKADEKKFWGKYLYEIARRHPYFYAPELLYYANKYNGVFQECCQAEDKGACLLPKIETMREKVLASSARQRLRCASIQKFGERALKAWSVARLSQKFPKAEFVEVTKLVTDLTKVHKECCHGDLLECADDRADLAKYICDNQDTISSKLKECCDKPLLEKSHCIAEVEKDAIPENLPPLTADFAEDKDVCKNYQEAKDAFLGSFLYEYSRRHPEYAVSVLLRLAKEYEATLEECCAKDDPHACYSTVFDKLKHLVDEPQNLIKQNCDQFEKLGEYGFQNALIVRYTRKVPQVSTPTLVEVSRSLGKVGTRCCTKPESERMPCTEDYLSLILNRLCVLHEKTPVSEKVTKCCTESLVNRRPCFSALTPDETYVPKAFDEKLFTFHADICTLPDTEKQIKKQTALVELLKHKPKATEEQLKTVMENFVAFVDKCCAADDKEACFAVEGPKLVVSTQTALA
# T1 sequence (P05067 672-713 limits assumed): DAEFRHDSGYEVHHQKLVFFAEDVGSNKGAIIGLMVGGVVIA
# Aβ42 monomers, sequence (P05067 672-713 limits assumed): as above
# T2 sequence (P10997 34-70 limits assumed): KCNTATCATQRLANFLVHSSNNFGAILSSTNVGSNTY
# ThT/Aβ42 aggregate complex, sequence (P05067 672-713 limits assumed, one chain of several): as the sequence (P05067 672-713 limits assumed) above
smiles,measurement,setting,value
"CCN(CC)c1ccc2cc(/C=C/c3ccc4ccccc4[n+]3C)c(=O)oc2c1.[I-] [QC, 2-(2-(7-(diethylamino)-2-oxo-2H-chromen-3-yl)vinyl)-1-methylquinolin-1-ium Iodide]",absorption maxima in presence of Aβ monomers,Aβ42 monomers,521 nm
same,fluorescence enhancement in presence of Aβ monomers,Aβ42 monomers; λem=654 nm,~7 fold
same,Kd,Aβ42 aggregates [1],82 ± 2.3 nM
same,fluorescence enhancement with IAPP aggregates,[2],negligible enhancement in fluorescence
same,staining of S. cerevisiae strains with α-synuclein (A30P) aggregates,[3],not stained
same,Normalized fluorescence intensity (QC),[4]; sample CSF1,12.50
same,Normalized fluorescence intensity (QC),[4]; sample CSF2,3.24
same,Normalized fluorescence intensity (QC),[4]; sample CSF3,29.60
same,Normalized fluorescence intensity (QC),[4]; sample CSF4,10.70
same,Normalized fluorescence intensity (QC),[4]; sample CSF5,51.50
same,Normalized fluorescence intensity (QC),[4]; sample CSF6,29.60
same,Normalized fluorescence intensity (QC),[4]; sample CSF7,6.40
same,Normalized fluorescence intensity (QC),[4]; sample CSF8,11.08
same,Normalized fluorescence intensity (QC),[4]; sample CSF9,6.30
same,Normalized fluorescence intensity (QC),[4]; sample CSF10,5.40
same,Normalized fluorescence intensity (QC),[4]; sample CSF11,6.70
same,Normalized fluorescence intensity (QC),[4]; sample CSF12,44.40
same,Normalized fluorescence intensity (QC),[4]; sample CSF13,3.20
same,Normalized fluorescence intensity (QC),[4]; sample CSF14,12.30
same,logP,[5],2.4
same,fluorescence enhancement with calf thymus DNA,calf thymus DNA,slight fluorescence enhancement
same,displacement of ThT from ThT/Aβ42 aggregate complex,[6],effective displacement of ThT by QC
same,absorption maximum in absence of Aβ42 aggregates,"[7]; PBS buffer (10 mM, pH 7.4)",516 nm
same,emission maximum in absence of Aβ42 aggregates,"[7]; PBS buffer, very weak fluorescence",664 nm
same,"quantum yield, unbound",[7]; [13],0.08
same,fluorescence enhancement with BSA,[8]; BSA 20 μM,considerable fluorescence enhancement is not observed
same,shift of emission with BSA,[8]; QC 2 μM,~34 nm
same,λem with BSA,[8]; QC 2 μM,616 nm
same,Stokes shift upon binding to Aβ42 aggregates,Aβ42 aggregates [9],~130 nm
same,blue shift of emission maxima in presence of Aβ42 aggregates,"Aβ42 aggregates [9]; QC 2 μM, Aβ42 aggregates 10 μM",10 nm
same,absorption maxima in presence of Aβ42 aggregates,"Aβ42 aggregates [9]; QC 2 μM, Aβ42 aggregates 10 μM, PBS 10 mM",521 nm
same,quantum yield after binding to Aβ42 aggregates,Aβ42 aggregates [9]; [13],0.36
same,emission maximum in presence of Aβ42 aggregates,Aβ42 aggregates [9]; probe 2 μM,654 nm
same,fluorescence enhancement in presence of Aβ42 aggregates,"Aβ42 aggregates [9]; probe 2 μM, PBS buffer",> 100 fold
same,probe identified intact,[10],more than 97%
same,fluorescence correlation coefficient with GFP tagged Aβ42 aggregates,[11]; QC 5 μM,83.7%
same,staining of S. cerevisiae expressing Aβ42 aggregates,"[11]; QC 5 μM, live cells",stains S. cerevisiae expressing Aβ42 aggregates selectively
same,mean Pearson co-localization coefficient,[11]; live cells counted (n=50),0.837
same,blue shift of λem maxima with α-Syn aggregates,"[12]; QC 2 μM, α-Syn 20 μM",~9 nm
same,fluorescence enhancement with α-Syn aggregates,[12]; α-Syn aggregates 20 μM,negligible enhancement in fluorescence
